The assay concerns the target T1, TrxR1 (thioredoxin reductase 1) (Rattus norvegicus, UniProt O89049).
T1 construct: gene Txnrd1
T1 sequence (O89049 1-499): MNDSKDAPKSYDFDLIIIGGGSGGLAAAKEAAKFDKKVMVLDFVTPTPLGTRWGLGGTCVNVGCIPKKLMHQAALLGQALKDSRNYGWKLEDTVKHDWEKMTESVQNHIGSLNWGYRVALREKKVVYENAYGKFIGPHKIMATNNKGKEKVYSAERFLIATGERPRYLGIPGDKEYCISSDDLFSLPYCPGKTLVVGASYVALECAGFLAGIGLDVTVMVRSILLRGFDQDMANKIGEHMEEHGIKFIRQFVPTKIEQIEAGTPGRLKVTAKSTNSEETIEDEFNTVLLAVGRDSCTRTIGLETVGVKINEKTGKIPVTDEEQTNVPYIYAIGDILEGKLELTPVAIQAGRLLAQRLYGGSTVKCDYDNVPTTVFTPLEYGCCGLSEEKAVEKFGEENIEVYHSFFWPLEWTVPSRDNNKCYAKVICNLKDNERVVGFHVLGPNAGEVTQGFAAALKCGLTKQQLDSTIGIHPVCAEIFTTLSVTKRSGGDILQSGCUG
The experiment in a line: biochemical.

With `CC[C@H](C)[C@H](NC(=O)C1CSSC1)C(=O)O` [2g, 2-(1,2-Dithiolane-4-carboxamido)-3-methylpentanoic acid], the IC50 (commonly the concentration at which inhibition is half-maximal) came out at 186 ± 14.9 µM. Turning to `O=C(Nc1cc2ccccc2oc1=O)C1CSSC1` [2j, N-(2-Oxo-2H-chromen-3-yl)-1,2-dithiolane-4-carboxamide], the midpoint of inhibition, the IC50, lay at 5.3 ± 0.4 µM.

The compound `O=C(Nc1ccc2oc(=O)ccc2c1)C1CSSC1` [2k, N-(2-oxo-2H-chromen-6-yl)-1,2-dithiolane-4-carboxamide] had an IC50 of 36.3 ± 2.9 µM.

Values taken from paper PMC10535816, “May 1,2-Dithiolane-4-carboxylic Acid and Its Derivatives Serve as a Specific Thioredoxin Reductase 1 Inhibitor?” (Molecules, 2023).
